According to PubChem BioAssay AID256 (DTP/NCI, 2004):
Values joined by “and” are separate entries in the source; they are usually repeats but may differ in a detail not shown here. Equal entries are not always repeated. Inconclusive results and toxic doses are left out.

Test system: CD2F1 mice, L1210 leukemia ip, survival T/C
Test: NCI In Vivo Anticancer Drug Screen. Data for tumor model L1210 Leukemia (intraperitoneal) in CD2F1 (CDF1) mice
Settings: higher = longer survival
Procedure, shortened: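 Tumor-bearing mice (transplanted tumor) were split into treated and vehicle control groups, and the measured endpoint of each treated group was divided by that of its vehicle controls.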

[1] = endpoint: mean survival time, dose: 50.0 mg/kg/injection, schedule: Q01DX009 (ip), vehicle: saline
[2] = endpoint: mean survival time, dose: 100.0 mg/kg/injection, schedule: Q01DX009 (ip), vehicle: saline
[3] = endpoint: mean survival time, dose: 200.0 mg/kg/injection, schedule: Q01DX009 (ip), vehicle: saline
[4] = endpoint: mean survival time, dose: 100.0 mg/kg/injection, schedule: Q01DX001 (ip), vehicle: saline with Tween-80
[5] = endpoint: mean survival time, dose: 200.0 mg/kg/injection, schedule: Q01DX001 (ip), vehicle: saline with Tween-80
[6] = endpoint: mean survival time, dose: 400.0 mg/kg/injection, schedule: Q01DX001 (ip), vehicle: saline with Tween-80
[7] = endpoint: mean survival time, dose: 100.0 mg/kg/injection, schedule: Q04DX003 (ip), vehicle: saline with Tween-80
[8] = endpoint: mean survival time, dose: 200.0 mg/kg/injection, schedule: Q04DX003 (ip), vehicle: saline with Tween-80
[9] = endpoint: mean survival time, dose: 12.5 mg/kg/injection, schedule: Q04DX003 (ip), vehicle: saline
[10] = endpoint: mean survival time, dose: 25.0 mg/kg/injection, schedule: Q04DX003 (ip), vehicle: saline
[11] = endpoint: mean survival time, dose: 50.0 mg/kg/injection, schedule: Q04DX003 (ip), vehicle: saline
[12] = endpoint: mean survival time, dose: 100.0 mg/kg/injection, schedule: Q04DX003 (ip), vehicle: saline

SMILES: COc1ccccc1C(=O)C1N=C(c2ccccc2)OC1=O (stereo not drawn)
- T/C (endpoint: mean survival time, dose: 100.0 mg/kg/injection, schedule: Q01DX001 (ip), vehicle: saline): 98 % of control
- T/C (endpoint: mean survival time, dose: 200.0 mg/kg/injection, schedule: Q01DX001 (ip), vehicle: saline): 97 % of control
- T/C (endpoint: mean survival time, dose: 400.0 mg/kg/injection, schedule: Q01DX001 (ip), vehicle: saline): 97 % of control

SMILES: NC(CC(=O)c1cccc2oc3cc(=O)c4[nH]c(C(=O)O)cc(=O)c4c-3nc12)C(=O)O (stereo not drawn)
- T/C (endpoint: mean survival time, dose: 50.0 mg/kg/injection, schedule: Q01DX001 (ip), vehicle: carboxymethylcellulose (CMC)): 98 % of control
- T/C (endpoint: mean survival time, dose: 100.0 mg/kg/injection, schedule: Q01DX001 (ip), vehicle: carboxymethylcellulose (CMC)): 95 % of control
- T/C (endpoint: mean survival time, dose: 200.0 mg/kg/injection, schedule: Q01DX001 (ip), vehicle: carboxymethylcellulose (CMC)): 95 % of control
- T/C (endpoint: mean survival time, dose: 400.0 mg/kg/injection, schedule: Q01DX001 (ip), vehicle: carboxymethylcellulose (CMC)): 101 % of control

SMILES: C=C(C)CC#N
- T/C [1]: 92 % of control
- T/C [2]: 95 % of control
- T/C [3]: 100 % of control

SMILES: [Pt+2].[S-]c1ccccc1.[S-]c1ccccc1.c1ccc([PH+](c2ccccc2)c2ccccc2)cc1.c1ccc([PH+](c2ccccc2)c2ccccc2)cc1
- T/C (endpoint: mean survival time, dose: 3.13 mg/kg/injection, schedule: Q04DX003 (sc), vehicle: distilled water + Tween-80): 97 % of control
- T/C (endpoint: mean survival time, dose: 6.25 mg/kg/injection, schedule: Q04DX003 (sc), vehicle: distilled water + Tween-80): 110 % of control
- T/C (endpoint: mean survival time, dose: 12.5 mg/kg/injection, schedule: Q04DX003 (sc), vehicle: distilled water + Tween-80): 103 % of control
- T/C (endpoint: mean survival time, dose: 25.0 mg/kg/injection, schedule: Q04DX003 (sc), vehicle: distilled water + Tween-80): 97 % of control
- T/C (endpoint: mean survival time, dose: 50.0 mg/kg/injection, schedule: Q04DX003 (sc), vehicle: distilled water + Tween-80): 91 % of control
- T/C (endpoint: mean survival time, dose: 100.0 mg/kg/injection, schedule: Q04DX003 (sc), vehicle: distilled water + Tween-80): 89 % of control

SMILES: FC(F)(F)c1cccc(NC2=NCCS2)c1
- T/C (endpoint: mean survival time, dose: 12.5 mg/kg/injection, schedule: Q01DX001 (ip), vehicle: saline with Tween-80): 106 % of control
- T/C (endpoint: mean survival time, dose: 25.0 mg/kg/injection, schedule: Q01DX001 (ip), vehicle: saline with Tween-80): 110 % of control
- T/C (endpoint: mean survival time, dose: 50.0 mg/kg/injection, schedule: Q01DX001 (ip), vehicle: saline with Tween-80): 101 % of control
- T/C [4]: 110 % of control
- T/C [5]: 106 % of control
- T/C [6]: 105 % of control

SMILES: O=C(O)CCCC(=O)C1CCCCC1
- T/C (endpoint: mean survival time, dose: 50.0 mg/kg/injection, schedule: Q01DX009 (ip), vehicle: saline with Tween-80): 103 % of control
- T/C (endpoint: mean survival time, dose: 100.0 mg/kg/injection, schedule: Q01DX009 (ip), vehicle: saline with Tween-80): 103 % of control
- T/C [7]: 95 % of control
- T/C (endpoint: mean survival time, dose: 200.0 mg/kg/injection, schedule: Q01DX009 (ip), vehicle: saline with Tween-80): 98 % of control
- T/C [8]: 90 % of control

SMILES: CC(=O)NC1=C(N2CC2)C(=O)C(NC(C)=O)=C(N2CC2)C1=O
- T/C (endpoint: mean survival time, dose: 0.5 mg/kg/injection, schedule: Q01DX009 (ip), vehicle: saline): 164 % of control and 181 % of control
- T/C (endpoint: mean survival time, dose: 1.0 mg/kg/injection, schedule: Q01DX007 (ip), vehicle: saline): 190 % of control
- T/C (endpoint: mean survival time, dose: 1.0 mg/kg/injection, schedule: Q01DX009 (ip), vehicle: saline): 213 % of control and 230 % of control and 261 % of control
- T/C (endpoint: mean survival time, dose: 1.0 mg/kg/injection, schedule: Q03DX003 (ip), vehicle: saline): 162 % of control
- T/C (endpoint: mean survival time, dose: 2.0 mg/kg/injection, schedule: Q01DX007 (ip), vehicle: saline): 105 % of control
- T/C (endpoint: mean survival time, dose: 2.0 mg/kg/injection, schedule: Q01DX009 (ip), vehicle: saline): 253 % of control and 100 % of control and 101 % of control
- T/C (endpoint: mean survival time, dose: 2.0 mg/kg/injection, schedule: Q03DX003 (ip), vehicle: saline): 198 % of control
- T/C (endpoint: mean survival time, dose: 2.0 mg/kg/injection, schedule: Q04DX003 (ip), vehicle: saline): 191 % of control
- T/C (endpoint: mean survival time, dose: 4.0 mg/kg/injection, schedule: Q03DX003 (ip), vehicle: saline): 107 % of control
- T/C (endpoint: mean survival time, dose: 4.0 mg/kg/injection, schedule: Q04DX003 (ip), vehicle: saline): 217 % of control

SMILES: [Cl][Pt+2][Cl].[NH-]c1ccccc1-c1ccccc1[NH-]
- T/C (endpoint: mean survival time, dose: 3.13 mg/kg/injection, schedule: Q04DX003 (ip), vehicle: saline): 104 % of control
- T/C (endpoint: mean survival time, dose: 6.25 mg/kg/injection, schedule: Q04DX003 (ip), vehicle: saline): 109 % of control
- T/C [9]: 120 % of control
- T/C [10]: 113 % of control
- T/C [11]: 109 % of control
- T/C [12]: 94 % of control

SMILES: Cc1c2cnccc2c(C)c2c1c1ccccc1n2CCCCCCCl
- T/C [7]: 91 % of control
- T/C [8]: 101 % of control

SMILES: COP(=O)(O)OCC1OC(n2cnc3c(N)ncnc32)C(O)C1O (stereo not drawn)
- T/C (endpoint: mean survival time, dose: 12.5 mg/kg/injection, schedule: Q01DX005 (ip), vehicle: distilled water + Tween-80): 96 % of control
- T/C (endpoint: mean survival time, dose: 25.0 mg/kg/injection, schedule: Q01DX005 (ip), vehicle: distilled water + Tween-80): 102 % of control
- T/C (endpoint: mean survival time, dose: 50.0 mg/kg/injection, schedule: Q01DX005 (ip), vehicle: distilled water + Tween-80): 106 % of control
- T/C (endpoint: mean survival time, dose: 100.0 mg/kg/injection, schedule: Q01DX005 (ip), vehicle: distilled water + Tween-80): 100 % of control
- T/C (endpoint: mean survival time, dose: 200.0 mg/kg/injection, schedule: Q01DX005 (ip), vehicle: distilled water + Tween-80): 106 % of control

SMILES: CC(C)(C)N.[O]=[Cr](=[O])([OH])[OH]
- T/C (endpoint: mean survival time, dose: 5.0 mg/kg/injection, schedule: Q01DX001 (ip), vehicle: saline): 104 % of control
- T/C (endpoint: mean survival time, dose: 10.0 mg/kg/injection, schedule: Q01DX001 (ip), vehicle: saline): 102 % of control
- T/C (endpoint: mean survival time, dose: 20.0 mg/kg/injection, schedule: Q01DX001 (ip), vehicle: saline): 96 % of control
- T/C (endpoint: mean survival time, dose: 40.0 mg/kg/injection, schedule: Q01DX001 (ip), vehicle: saline): 94 % of control

SMILES: [CH3][Sn]([CH3])([Br])[CH2]CC[CH2][Sn]([CH3])([CH3])[Br]
- T/C (endpoint: mean survival time, dose: 0.02 mg/kg/injection, schedule: Q01DX009 (ip), vehicle: saline): 100 % of control
- T/C (endpoint: mean survival time, dose: 0.04 mg/kg/injection, schedule: Q01DX009 (ip), vehicle: saline): 104 % of control
- T/C (endpoint: mean survival time, dose: 0.08 mg/kg/injection, schedule: Q01DX009 (ip), vehicle: saline): 102 % of control
- T/C (endpoint: mean survival time, dose: 6.25 mg/kg/injection, schedule: Q01DX009 (ip), vehicle: saline): 110 % of control

SMILES: FC(F)(F)c1nc2nccnc2[nH]1
- T/C [1]: 95 % of control
- T/C [2]: 91 % of control
- T/C [3]: 93 % of control

SMILES: CN(C)N=Nc1ccc(C(=O)O)cc1
- T/C (endpoint: mean survival time, dose: 25.0 mg/kg/injection, schedule: Q01DX009 (ip), vehicle: saline): 112 % of control
- T/C [10]: 96 % of control
- T/C (endpoint: mean survival time, dose: 45.0 mg/kg/injection, schedule: Q01DX009 (ip), vehicle: saline): 124 % of control
- T/C [1]: 124 % of control
- T/C [11]: 102 % of control
- T/C (endpoint: mean survival time, dose: 65.0 mg/kg/injection, schedule: Q01DX009 (ip), vehicle: saline): 154 % of control
- T/C [2]: 172 % of control
- T/C [12]: 109 % of control
- T/C [3]: 90 % of control
- T/C (endpoint: mean survival time, dose: 200.0 mg/kg/injection, schedule: Q04DX003 (ip), vehicle: saline): 123 % of control
- T/C (endpoint: mean survival time, dose: 400.0 mg/kg/injection, schedule: Q04DX003 (ip), vehicle: saline): 103 % of control
- T/C (endpoint: median survival time, dose: 25.0 mg/kg/injection, schedule: Q01DX005 (ip), vehicle: saline): 122 % of control
- T/C (endpoint: median survival time, dose: 36.0 mg/kg/injection, schedule: Q01DX005 (ip), vehicle: saline): 116 % of control
- T/C (endpoint: median survival time, dose: 50.0 mg/kg/injection, schedule: Q01DX005 (ip), vehicle: saline): 124 % of control
- T/C (endpoint: median survival time, dose: 100.0 mg/kg/injection, schedule: Q01DX005 (ip), vehicle: saline): 151 % of control and 170 % of control
- T/C (endpoint: median survival time, dose: 166.6 mg/kg/injection, schedule: Q01DX005 (ip), vehicle: saline): 179 % of control
- T/C (endpoint: median survival time, dose: 200.0 mg/kg/injection, schedule: Q01DX005 (ip), vehicle: saline): 112 % of control

SMILES: [Cl][Pt+2][Cl].[NH-]CCC([NH-])C(=O)O (stereo not drawn)
- T/C [9]: 107 % of control
- T/C [10]: 121 % of control
- T/C [11]: 115 % of control

SMILES: CC(=O)Oc1cccc2c1C(=O)c1c(OC(C)=O)cccc1C2=O
- T/C (endpoint: mean survival time, dose: 25.0 mg/kg/injection, schedule: Q01DX009 (ip), vehicle: water): 102 % of control
- T/C (endpoint: mean survival time, dose: 50.0 mg/kg/injection, schedule: Q01DX009 (ip), vehicle: water): 93 % of control
- T/C (endpoint: mean survival time, dose: 100.0 mg/kg/injection, schedule: Q01DX009 (ip), vehicle: water): 96 % of control
- T/C (endpoint: mean survival time, dose: 200.0 mg/kg/injection, schedule: Q01DX009 (ip), vehicle: water): 88 % of control

SMILES: CC(C)OC(=O)Nc1cccc(Cl)c1F
- T/C [4]: 96 % of control
- T/C [5]: 95 % of control
- T/C [6]: 96 % of control
